Assay results taken from ChEMBL document CHEMBL6078641, “Modulation of aryl hydrocarbon receptor activity by halogenated indoles” (Bioorg Med Chem, 2024).

Key:
LS174T [1] = assay: Cytotoxicity against human LS174T cells upto 200 uM incubated for 24 hrs by MTT assay; format: toxicity, cell-based
[2] = molecular target: T1, Aryl hydrocarbon receptor (Mus musculus, UniProt P30561); assay: Displacement of [3H]-TCDD from AhR in mouse Hepa1c1c7 cell cytosolic lysate by competitive binding assay; format: subcellular, Cytosol; conditions: for Activity: mouse, cytosol, dose 0.1-100 µM
T1 sequence (P30561 whole entry): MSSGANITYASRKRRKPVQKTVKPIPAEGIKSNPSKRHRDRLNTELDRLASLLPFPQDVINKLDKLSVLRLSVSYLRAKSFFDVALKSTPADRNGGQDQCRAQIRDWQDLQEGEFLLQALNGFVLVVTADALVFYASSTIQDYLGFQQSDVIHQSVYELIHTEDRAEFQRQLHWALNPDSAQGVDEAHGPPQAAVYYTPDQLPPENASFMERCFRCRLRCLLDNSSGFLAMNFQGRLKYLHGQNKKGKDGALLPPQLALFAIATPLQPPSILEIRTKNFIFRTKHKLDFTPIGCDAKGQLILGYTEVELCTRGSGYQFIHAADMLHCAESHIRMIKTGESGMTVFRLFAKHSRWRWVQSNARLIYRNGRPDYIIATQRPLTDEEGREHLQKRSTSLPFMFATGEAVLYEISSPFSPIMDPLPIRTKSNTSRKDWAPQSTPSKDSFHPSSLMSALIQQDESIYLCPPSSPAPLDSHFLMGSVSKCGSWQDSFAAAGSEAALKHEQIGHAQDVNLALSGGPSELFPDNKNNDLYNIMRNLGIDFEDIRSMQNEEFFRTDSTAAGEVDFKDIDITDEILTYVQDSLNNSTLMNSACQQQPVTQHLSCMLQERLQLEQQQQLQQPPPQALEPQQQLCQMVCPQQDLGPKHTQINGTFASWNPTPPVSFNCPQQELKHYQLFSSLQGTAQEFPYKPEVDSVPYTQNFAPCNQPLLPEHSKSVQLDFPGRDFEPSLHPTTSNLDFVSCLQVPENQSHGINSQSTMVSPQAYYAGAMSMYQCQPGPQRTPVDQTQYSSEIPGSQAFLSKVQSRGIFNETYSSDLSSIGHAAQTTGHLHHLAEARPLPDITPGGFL

[3] = Induction of CYP1A1 mRNA expression in human LS180 cells incubated for 4 hrs by chromatin immunoprecipitation assay; format: functional
[4] = Induction of CYP1A1 mRNA expression in human LS180 cells assessed as fold increase at 100 uM incubated for 8 hrs by qRT-PCR analysis relative to control; format: functional
[5] = Induction of CYP1A1 mRNA expression in human LS180 cells assessed as fold increase at 100 uM incubated for 24 hrs by qRT-PCR analysis relative to control; format: functional
[6] = molecular target: T2, Aryl hydrocarbon receptor (Homo sapiens, UniProt P35869); assay: Agonist activity at Luc-fused AhR (unknown origin) transcriptional activity expressed in human LS174T cells incubated for 4 hrs by luciferase reporter gene assay; format: cell-based
T2 sequence (P35869 whole entry): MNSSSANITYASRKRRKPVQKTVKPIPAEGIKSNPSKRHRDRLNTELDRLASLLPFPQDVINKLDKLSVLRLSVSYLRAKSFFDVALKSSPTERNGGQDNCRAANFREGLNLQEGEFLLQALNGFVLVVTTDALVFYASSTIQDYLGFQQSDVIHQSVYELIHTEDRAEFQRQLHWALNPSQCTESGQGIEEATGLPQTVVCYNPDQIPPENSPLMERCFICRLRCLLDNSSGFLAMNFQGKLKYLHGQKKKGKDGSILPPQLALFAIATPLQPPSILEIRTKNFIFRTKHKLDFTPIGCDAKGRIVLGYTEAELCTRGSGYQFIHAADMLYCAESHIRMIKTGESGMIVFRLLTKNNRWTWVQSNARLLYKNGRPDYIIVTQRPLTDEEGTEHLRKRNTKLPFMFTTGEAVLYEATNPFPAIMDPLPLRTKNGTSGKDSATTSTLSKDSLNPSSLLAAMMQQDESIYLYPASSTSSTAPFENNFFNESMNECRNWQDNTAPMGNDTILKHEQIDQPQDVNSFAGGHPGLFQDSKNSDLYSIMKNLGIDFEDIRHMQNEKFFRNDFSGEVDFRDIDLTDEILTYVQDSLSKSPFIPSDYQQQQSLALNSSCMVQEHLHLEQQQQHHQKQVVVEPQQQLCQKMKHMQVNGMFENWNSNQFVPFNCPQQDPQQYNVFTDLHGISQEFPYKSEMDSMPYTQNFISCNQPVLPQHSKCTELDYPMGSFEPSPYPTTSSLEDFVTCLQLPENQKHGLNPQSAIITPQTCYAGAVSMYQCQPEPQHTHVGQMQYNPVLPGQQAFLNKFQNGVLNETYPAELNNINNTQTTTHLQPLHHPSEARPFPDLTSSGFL

[7] = molecular target: T2, Aryl hydrocarbon receptor; assay: Agonist activity at Luc-fused AhR (unknown origin) transcriptional activity expressed in human LS174T cells incubated for 24 hrs by luciferase reporter gene assay; format: cell-based
[8] = molecular target: T2, Aryl hydrocarbon receptor; assay: Agonist activity at Luc-fused AhR (unknown origin) transcriptional activity expressed in human LS174T cells at 100 uM incubated for 4 hrs by luciferase reporter gene assay relative to control; format: cell-based; conditions: read-out: Activity
[9] = molecular target: T1, Aryl hydrocarbon receptor; assay: Displacement of [3H]-TCDD from AhR in mouse Hepa1c1c7 cell cytosolic lysate at 50 uM by competitive binding assay relative to control; format: subcellular, Cytosol; conditions: Hepa-1c1c7, mouse, read-out: Activity
LS174T [10] = assay: Cytotoxicity against human LS174T cells assessed as decrease in cell viability at 200 uM incubated for 24 hrs by MTT assay relative to control; format: toxicity, cell-based
[11] = Induction of CYP1A1 mRNA expression in human LS180 cells at 25 uM incubated for 4 hrs by chromatin immunoprecipitation assay relative to control; format: functional

Row | EC50 [6] [µM] | activity at 100 µM [8] [%] | Structure (SMILES) | Activity (LS174T [1]) | EC80 [3] [µM] | also measured
1 | – | – | Brc1ccc2cc[nH]c2c1 | Non-toxic | 4.1 | IC50 [2]: 43.4 µM; Ki [2]: 21.7 µM; Activity [2]: Dose-dependent-effect
2 | – | – | Clc1cc2c(cc1Cl)Oc1cc(Cl)c(Cl)cc1O2 [2,3,7,8-TETRACHLORODIBENZO-P-DIOXIN] | – | – | fold change (FC) [4]: ~26; fold change (FC) [5]: ~92
3 | – | – | O=C1Cc2ccc(Cl)cc2N1 | Non-toxic | 0.3 | IC50 [2]: 7.4 µM; Ki [2]: 3.7 µM; Activity [2]: Dose-dependent-effect; inhibition at 50 µM [9]: 50%
4 | – | – | Clc1cccc2cc[nH]c12 | Non-toxic | – | –
5 | – | – | O=C1Cc2cc(Cl)ccc2N1 | Non-toxic | – | –
6 | – | – | Brc1cccc2[nH]ccc12 | Non-toxic | – | –
7 | 7.9 | 15 | Clc1cccc2[nH]ccc12 | Non-toxic | – | Activity (LS174T [10]): 50%
8 | – | – | O=C1Cc2cc(F)ccc2N1 | Non-toxic | – | –
9 | – | – | O=C1Cc2cccc(Cl)c2N1 | Non-toxic | – | –
10 | – | – | O=C1Cc2cc(Br)ccc2N1 | Non-toxic | 4.7 | IC50 [2]: > 100 µM; Activity [2]: Dose-dependent-effect; inhibition at 50 µM [9]: 20%
11 | – | – | Brc1cccc2cc[nH]c12 | Non-toxic | 5.5 | inhibition at 50 µM [9]: > 70%
12 | – | – | Fc1ccc2[nH]ccc2c1 | Non-toxic | – | –
13 | 6.7 | 108 | Brc1ccc2[nH]ccc2c1 | Non-toxic | – | EC50 [7]: 58.1 µM
14 | 5.2 | 86 | O=C1Cc2ccccc2N1 [OXINDOLE] | Non-toxic | – | EC50 [7]: 80.9 µM
15 | 24.1 | 30 | Clc1ccc2[nH]ccc2c1 | Non-toxic | – | EC50 [7]: 77.2 µM; Activity (LS174T [10]): 50%
16 | – | – | Fc1ccc2cc[nH]c2c1 | Non-toxic | – | –
17 | 4.3 | 92 | Clc1ccc2cc[nH]c2c1 | Non-toxic | – | EC50 [7]: 80.6 µM
18 | – | – | Fc1cccc2[nH]ccc12 | Non-toxic | 5.1 | IC50 [2]: 18.2 µM; Ki [2]: 9.1 µM; Activity [2]: Dose-dependent-effect; inhibition at 50 µM [9]: > 70%
19 | – | – | Fc1cccc2cc[nH]c12 | Non-toxic | 3.8 | IC50 [2]: 22.1 µM; Ki [2]: 11 µM; Activity [2]: Dose-dependent-effect; inhibition at 50 µM [9]: > 70%
20 | 2.5 | 68 | O=C1Cc2ccc(Br)cc2N1 | Non-toxic | 33.1 | EC50 [7]: 18.6 µM; IC50 [2]: > 100 µM; Activity [2]: Dose-dependent-effect; inhibition at 50 µM [9]: 10%; Efficacy [11]: 12%

Row | Structure (SMILES) | EC50 [6] [µM] | activity at 100 µM [8] [%] | Activity (LS174T [1]) | EC80 [3] [µM] | also measured
21 | c1ccc2[nH]ccc2c1 [INDOLE] | 11.1 | 94 | Non-toxic | – | EC50 [7]: 43.1 µM
